Read-outs that look alike come from different tables or passages of the source.
Tests used:
[1] = target: T1, Escherichia coli dihydrofolate reductase (Escherichia coli, UniProt P0ABQ4); assay: Degradation of pre-inhibited eDHFR in cell lysates (Western blot); assay type: biochemical
T1 construct: (His)6 (N); made in house; host or cells: Escherichia coli (pET28a vector)

eDHFR-HA-GFP = eDHFR-HA-GFP (Escherichia coli, UniProt P0ABQ4)
Method: FIG. 6 depicts degradation of eDHFR-HA in cell lysates and degradation of eDHFR fusion proteins in HeLa cells. (A) Degradation of eDHFR in HeLa cells lysates; (B) quantification of panel (A); (C) Global protein stability (GPS) assay. Cells co-express red fluorescent protein (RFP) and DHFR-HA-GFP from a bicistronic construct. Red and green fluorescence was measured by flow cytometry.
Protein degradation in whole cells was also assessed. eDHFR-HA-GFP was co-expressed with Discosoma sp. red fluorescent protein (RFP) in a bicistronic construct under control of a CMV promoter, with DHFR-HA-GFP translation occurring at the internal ribosome binding site. Thus a single mRNA is responsible for the production of both RFP and DHFR-HA-GFP, so that similar ratios of both proteins should be produced in all transfected cells. Changes in the relative intensities of red and green fluorescence are measured by flow cytometry, providing a facile and quantitative measure of the degradation of DHFR-HA-GFP in living cells and real time.
Cells were grown to 90% confluence in Dulbecco's Modified Minimal Essential Medium supplemented with 10% fetal bovine serum, 1×L-glutamine with no antibiotic in a 6 well plate. At this point the cells were serum starved, and then transfected using […] plasmid (expression driven by the cytomegalovirus promoter; gene coding for enhanced green fluorescent protein fused to the C-terminus of E. coli dihydrofolate reductase): 2 μL Transfectin™ (Biorad) per well. 48 hours after transfection, media was once again aspirated, and fresh serum free media was added. Cycloheximide (final concentration 100 μg/mL) was then added to the cells and after 5 minutes, 30 μM inhibitor was added. At each time point (45 minutes), media was aspirated, cells were trypsinized, centrifuged and washed three times with phosphate buffered saline. Cell pellets were flash frozen in dry ice, and then stored indefinitely at −80° C. The cells were thawed on ice, and then resuspended in lysis buffer (150 mM sucrose, 200 mM sodium phosphate, 43 mM MgCl2, pH 7.8, 0.1% triton X-100). Cells were lysed by two freeze/thaw cycles (−80° C. for 5 minutes, then 4° C. for 10 minutes). Lysate concentrations were normalized by dilution with lysis buffer such that they gave the same A595 when diluted into Bradford assay dye (Biorad).

eDHFR-HA = target: T2, eDHFR-HA (Escherichia coli, UniProt P0ABQ4); assay: Degradation by purified 20S proteasome / immunoproteasome; assay type: biochemical
T2 construct: (His)6 (N); made in house; host or cells: Escherichia coli (pET28a vector)
Method: The protein was pre-inhibited with 1 mM inhibitor by incubation at 30° C. for 20 minutes. This mixture was added to the assay mixture (in 50 mM Hepes, pH 8.0, 250 mM NaCl, 1 mM DTT) such that the final concentration of protein was 90 nM. The concentration of proteasome was 6 nM. The temperature of assay was 37° C. Total assay volume was 55 μL. 15 μL aliquots were extracted at various time points and immediately placed into 6 μL of 5× loading buffer and boiled for 5 minutes. These were stored at −80° C. after flash freezing on dry ice and thawed by boiling for 2 minutes. The data was analyzed by Western blot as described in Example 2.

HeLa cells = assay: Cytotoxicity and apoptosis (trypan blue staining, PARP cleavage); assay type: cell-based; settings: concentrations up to 135 μM
eDHFR = eDHFR (Escherichia coli, UniProt P0ABQ4); assay type: binding; settings: data not shown
[2] = test system: eDHFR-KRas D12 fusion protein; assay type: cell-based; settings: NIH3T3 cells, 16 μM
Method: FIG. 3 depicts the degradation of eDHFR-KRas D12 fusion protein. MSCV retrovirus was used to insert eDHFR-KRas D12 fusion gene into NIH3T3 cells. These cells were plated in a 48-well plate and treated with 16 μM of either trimethoprim or trimethoprim-Boc3Arg, and then harvested at the times indicated. eDHFR-Ras contained a FLAG tag at the amino terminus and was measured through western blot with anti-FLAG antibody. Tubulin was used as a loading control.

COc1cc(Cc2cnc(N)nc2N)cc(OC)c1OCC(=O)NCCCCCCNC(=O)C(CCCNC(=NC(=O)OC(C)(C)C)NC(=O)OC(C)(C)C)NC(=O)OC(C)(C)C (stereo not drawn) [TMP-Boc3Arg, N-(6-(2-(4-((2,4-diaminopyrimidin-5-yl)methyl)-2,6-dimethoxyphenoxy)acetamido)hexyl)-5-(2,3-di-t-butoxycarbonylguanidino)-2-(t-butoxycarbonylamino)pentanamide]
Degradation of target protein (eDHFR fused to GFP) ([1]; FIG. 6, noncovalent ligand): induced the degradation | Degradation of eDHFR in cell lysate assays ([1]; cell lysate): promotes the degradation | decrease of eDHFR-HA-GFP (eDHFR-HA-GFP; 80 μM, 5 hours, GPS assay, anti-HA and anti-GFP blotting): 40% | Change in GFP:RFP ratio as function of time (eDHFR-HA-GFP; GPS assay, transfected HeLa cells, flow cytometry): time-dependent decrease | Cell permeability (eDHFR-HA-GFP; inferred from whole-cell degradation): cell permeable | Degradation of eDHFR-HA-GFP in whole cells (eDHFR-HA-GFP; whole cell assays): promotes the degradation | Degradation using purified immune proteasome (eDHFR-HA; 20S immunoproteasome): promotes the degradation | Degradation using purified 20S proteasome (eDHFR-HA; purified 20S proteasome, no ATP added): promotes the degradation | Cytotoxicity / induction of apoptosis (HeLa cells): did not display cytotoxicity or induce apoptosis | increase of eDHFR melting point / stability (relative to TMP) (eDHFR): smaller increase | Degradation of K-Ras-eDHFR fusion protein [2]: can induce the degradation | Degradation of K-Ras-eDHFR fusion protein ([2]; listed as trimethoprim-tag): is degraded
